Experimental data taken from ChEMBL document CHEMBL1153187 (Bioorg Med Chem Lett, 2010).

Key:
Leishmania amazonensis [1] = assay: Antileishmanial activity against Leishmania amazonensis LMA CL1 amastigotes infected in mouse macrophage by MTT assay; assay type: functional, organism-based
Leishmania amazonensis [2] = assay: Antileishmanial activity against Leishmania amazonensis MHOM/BR/76/LTB-012 axenic amastigotes by MTT assay
[3] = Toxicity against BALB/c mouse macrophage by MTT assay; assay type: cell-based; settings: mouse macrophages
[4] = Selectivity index, ratio of IC50 for BALB/c macrophages to IC50 for Leishmania amazonensis (MHOM/BR/76/LTB-012)
Leishmania peruviana = assay: Antileishmanial activity against Leishmania peruviana MHOM/PE/LCA08 promastigotes infected in mouse macrophage by MTT assay; assay type: functional, organism-based
Leishmania braziliensis = assay: Antileishmanial activity against Leishmania braziliensis MHOM/PE/PER006 promastigotes infected in mouse macrophage by MTT assay; assay type: functional, organism-based
Leishmania amazonensis [5] = assay: Antileishmanial activity against Leishmania amazonensis LV79 MPRO/BR/72/M1841 infected in BALB/c mouse assessed as reduction in parasite burden at 5 mg/kg after 6 weeks; assay type: functional; set-up: scale not given: the % may be the effect or the level left
Leishmania amazonensis [6] = assay: Antileishmanial activity against Leishmania amazonensis LV79 MPRO/BR/72/M1841 infected in BALB/c mouse assessed as reduction in parasite burden at 5 mg/kg after 4 weeks; assay type: functional; set-up: scale not given: the % may be the effect or the level left
Leishmania amazonensis [7] = assay: Antileishmanial activity against Leishmania amazonensis LV79 MPRO/BR/72/M1841 infected in BALB/c mouse assessed as lesion diameter at 5 mg/kg after 4 weeks; assay type: functional
Leishmania amazonensis [8] = assay: Antileishmanial activity against Leishmania amazonensis LV79 MPRO/BR/72/M1841 infected in BALB/c mouse assessed as reduction in parasite burden at 33 mg/kg after 7 weeks; assay type: functional, organism-based; set-up: dose 33 mg/kg; scale not given: the % may be the effect or the level left
Leishmania amazonensis [9] = assay: Antileishmanial activity against Leishmania amazonensis LV79 MPRO/BR/72/M1841 infected in BALB/c mouse assessed as lesion diameter at 33 mg/kg after 4 weeks; assay type: functional, organism-based; set-up: dose 33 mg/kg
Leishmania amazonensis [10] = assay: Antileishmanial activity against Leishmania amazonensis LV79 MPRO/BR/72/M1841 infected in BALB/c mouse assessed as reduction in parasite burden at 33 mg/kg after 4 weeks; assay type: functional, organism-based; set-up: dose 33 mg/kg; scale not given: the % may be the effect or the level left

| Compound | IC50 (Leishmania amazonensis [2]) [µM] | IC50 [3] [µM] | Ratio IC50 [4] | other results |
| --- | --- | --- | --- | --- |
| COc1cc(O)cc(O)c1C(=O)/C=C/c1ccc2c(c1)OCO2 | 4.1 | 157 | 38.3 | IC50 (Leishmania amazonensis [1]): 16.6 µM; IC50 (Leishmania peruviana): 19.7 µM; IC50 (Leishmania braziliensis): 8.6 µM |
| C=CCOc1cc(OC)c(C(=O)/C=C/c2ccccc2Br)c(OCC=C)c1 | 7.9 | 5.4 | 0.7 | – |
| C=CCOc1cc(OC)c(C(=O)/C=C/c2ccncc2)c(OCC=C)c1 | 0.6 | – | – | – |
| C=CCOc1cc(/C=C/C(=O)c2c(O)cc(O)cc2OC)cc(OCC=C)c1Br | 1.1 | 11.5 | 10.5 | IC50 (Leishmania amazonensis [1]): 4.1 µM; Activity (Leishmania amazonensis [5]): 8%; Activity (Leishmania amazonensis [6]): 9%; IC50 (Leishmania braziliensis): 14.4 µM; Activity (Leishmania amazonensis [7]): 3.1 mm |
| COc1cc(O)cc(O)c1C(=O)/C=C/c1ccccc1F | 11.8 | 16 | 1.4 | – |
| COc1cc(/C=C/C(=O)c2c(O)cc(O)cc2OC)cc(OC)c1OC | 9.7 | – | – | – |
| C=CCOc1cc(OC)c(C(=O)/C=C/c2ccc(O)c(OC)c2)c(OCC=C)c1 | 107 | – | – | – |
| COc1cc(O)cc(O)c1C(=O)/C=C/c1ccc(Cl)cc1 | 11.2 | 19 | 1.7 | – |
| C=CCOc1cc(OC)c(C(=O)/C=C/c2ccc(O)cc2)c(OCC=C)c1 | 85.2 | – | – | – |
| C=CCOc1cc(OC)c(C(=O)/C=C/c2ccc(C)cc2)c(OCC=C)c1 | 79.8 | – | – | – |
| C=CCOc1cc(OC)c(C(=O)/C=C/c2ccc([N+](=O)[O-])cc2)c(OCC=C)c1 | 8.3 | 13.2 | 1.6 | – |
| COc1cc(O)cc(O)c1C(=O)/C=C/C=C/c1ccccc1 | 52.6 | – | – | – |
| C=CCOc1cc(OC)c(C(=O)/C=C/c2ccc[nH]2)c(OCC=C)c1 | 94.3 | – | – | – |
| COc1cc(O)cc(O)c1C(=O)/C=C/c1ccc(O)cc1 [HELICHRYSETIN] | 15.7 | 21.7 | 1.4 | – |
| COc1cc(O)cc(O)c1C(=O)/C=C/c1ccccc1Br | 10.6 | 14.6 | 1.4 | – |
| C=CCOc1cc(OC)c(C(=O)/C=C/c2ccc3c(c2)OCO3)c(OCC=C)c1 | 6.6 | – | – | – |
| C=CCOc1cc(OC)c(C(=O)/C=C/c2ccccn2)c(OCC=C)c1 | 1.1 | 12.5 | 11.4 | IC50 (Leishmania amazonensis [1]): 0.9 µM; Activity (Leishmania amazonensis [5]): 25%; IC50 (Leishmania peruviana): 4 µM; IC50 (Leishmania braziliensis): 1.4 µM; Activity (Leishmania amazonensis [7]): 3 mm |
| C=CCOc1cc(OC)c(C(=O)/C=C/c2ccccc2F)c(OCC=C)c1 | 9.5 | 13.3 | 1.4 | – |

| Compound | IC50 (Leishmania amazonensis [2]) [µM] | IC50 [3] [µM] | Ratio IC50 [4] | other results |
| --- | --- | --- | --- | --- |
| C=CCOc1cc(OC)c(C(=O)/C=C/c2ccc(Cl)cc2)c(OCC=C)c1 | 9.4 | 13 | 1.4 | – |
| MEGLUMINE ANTIMONATE | – | – | – | Activity (Leishmania amazonensis [8]): 100%; Activity (Leishmania amazonensis [9]): 2.1 mm; Activity (Leishmania amazonensis [10]): 100% |
| COc1cc(O)cc(O)c1C(=O)/C=C/c1ccco1 | 4.6 | 384 | 83.5 | IC50 (Leishmania amazonensis [1]): 16.9 µM; IC50 (Leishmania peruviana): 34.2 µM; IC50 (Leishmania braziliensis): 30.4 µM |
| C=CCOc1cc(OC)c(C(=O)/C=C/c2ccc(OC)cc2)c(OCC=C)c1 | 5.5 | 18.7 | 3.4 | – |
| C=CCOc1cc(OC)c(C(=O)/C=C/C=C/c2ccccc2)c(OCC=C)c1 | 75.2 | – | – | – |
| COc1cc(O)cc(O)c1C(=O)/C=C/c1ccc(C)cc1 | 7.4 | 16.5 | 2.2 | – |
| COc1cc(O)cc(O)c1C(=O)/C=C/c1ccc(F)cc1 | 11.8 | 28.8 | 2.4 | – |
| C[C@@H]1[C@H](O)[C@@H](C)/C=C/C=C/C=C/C=C/C=C/C=C/C=C/[C@H](O[C@@H]2O[C@H](C)[C@@H](O)[C@H](N)[C@@H]2O)C[C@@H]2O[C@](O)(C[C@@H](O)C[C@@H](O)[C@H](O)CC[C@@H](O)C[C@@H](O)CC(=O)O[C@H]1C)C[C@H](O)[C@H]2C(=O)O [AMPHOTERICIN B] | 0.1 | 5.3 | 76 | IC50 (Leishmania amazonensis [1]): 0.4 µM; IC50 (Leishmania peruviana): 0.1 µM; IC50 (Leishmania braziliensis): 0.1 µM |
| COc1ccc(/C=C/C(=O)c2c(O)cc(OC)cc2OC)cc1 [FLAVOKAWAIN A] | 17.2 | – | – | – |
| COc1cccc(/C=C/C(=O)c2c(O)cc(O)cc2OC)c1 | 12 | 17.6 | 1.5 | – |
| C=CCOc1cc(OC)c(C(=O)/C=C/c2cccc(OC)c2)c(OCC=C)c1 | 8.7 | 13.1 | 1.5 | – |
| C=CCOc1cc(OC)c(C(=O)/C=C/c2ccc(F)cc2)c(OCC=C)c1 | 9.5 | 13.8 | 1.5 | – |
| COc1cc(O)cc(O)c1C(=O)/C=C/c1ccc(C(F)(F)F)cc1 | 8.6 | 17.1 | 2 | – |
| C=CCOc1cc(OC)c(C(=O)/C=C/c2cc(OC)c(OC)c(OC)c2)c(OCC=C)c1 | 8.2 | 12 | 1.5 | – |
| COc1ccc(/C=C/C(=O)c2c(O)cc(O)cc2OC)c(OC)c1 | 6.4 | > 300 | >50 | IC50 (Leishmania amazonensis [1]): 28.5 µM |
| COc1ccc(/C=C/C(=O)c2c(O)cc(O)cc2OC)cc1 | 10 | 166 | 16.6 | IC50 (Leishmania amazonensis [1]): 14.3 µM; IC50 (Leishmania peruviana): 23 µM; IC50 (Leishmania braziliensis): 7.6 µM |
| COc1cc(/C=C/C(=O)c2c(O)cc(O)cc2OC)ccc1O | 14.9 | – | – | – |
